From patent US6921840B1 (The Trustees of the University of Pennsylvania, priority 1999, dated 2005)
Like-named read-outs stand apart in the source and are kept apart here.

How the values were obtained:
SERT [1] = biological target: T1, SERT (Rattus norvegicus, UniProt P31652); design: The frontal cortex of rat brain were dissected and homogenized in 30 volumes of buffer; from tissue; host or cells: rat frontal cortex membrane homogenates (male Sprague-Dawley rats, control and PCA-lesioned); settings: Kung et al. 1992, cited from earlier work
[2] = biological target: T2, serotonin transporter (SERT) expressed in LLC-PK1 cells (Rattus norvegicus, UniProt P31652); experiment: [125I]IPT competition binding, LLC-SERT membrane homogenates
T2 construct: host or cells: LLC-PK1 (LLC-SERT)
Description: (§1) Three monoamine transporters expressed respectively in a common parental cell line, LLC-PK, (referred to as LLC-DAT. LLC-NET and LLC-SERT) were kindly provided by Dr. G. Rudnick of Yale University.

[3] = biological target: T3, norepinephrine transporter (NET) expressed in LLC-PK1 cells (Homo sapiens, UniProt P23975); experiment: [125I]IPT competition binding, LLC-NET membrane homogenates
T3 construct: host or cells: LLC-PK1 (LLC-NET)
Description: as §1

[4] = biological target: T4, dopamine transporter (DAT) expressed in LLC-PK1 cells (Rattus norvegicus, UniProt P23977); experiment: [125I]IPT competition binding, LLC-DAT membrane homogenates
T4 construct: host or cells: LLC-PK1 (LLC-DAT)
Description: as §1

SERT [5] = biological target: T1, SERT; experiment: In vivo competitive binding: drug pretreatment before [125I]IDAM; settings: 2 mg/kg i.v. 5 min prior to tracer; 60 min after tracer
Procedure: Experiments were performed using groups of 3-4 animals per study. […] The reduction of regional specific binding in the drug-pretreated rats was compared to the control animals with saline pretreatment.

SERT [6] = biological target: T1, SERT; experiment: Competition binding with [125I]IDAM in rat frontal cortical homogenate; design: The frontal cortex of rat brain were dissected and homogenized in 30 volumes of buffer; from tissue; host or cells: rat frontal cortex membrane homogenates (male Sprague-Dawley rats, control and PCA-lesioned)
Procedure: The homogenates were centrifuged at 20,000 g for 20 min. The resulting pellets were then re-suspended and recentrifuged. The final pellets were suspended in the same buffer and used for in vitro binding assays.
Various inhibitors were serially diluted with the buffer containing 0.1% BSA to overcome the stickiness and loss due to dilution. […] Incubation was carried out for 60 min at room temperature and then terminated by separation of bound from free radioligand by filtration through glass fiber filters (Schleicher & Schuell No. 25, Keene, N.H.) presoaked with 1% polyethylenimine. The filters were then washed three times with 3 ml of ice-cold […] Tris buffer and counted in a gamma counter (Packard 5000) with 70% efficiency. To study the effect of […], the homogenates were prepared in a sodium-free 50 mM Tris-HCl/5 mM KCl buffer.

[7] = Biodistribution in rats after i.v. injection of radioactive tracer; type: in vivo, rat
Procedure: Three or four rats per group were used for each biodistribution study. While under ether anesthesia, 0.2 ml of a saline solution containing 10 μCi of radioactive tracer was injected into the femoral vein. The rats were sacrificed at the time indicated by cardiac excision while under ether anesthesia. Organs of interest were removed and weighed, and the radioactivity was counted using a Packard automatic gamma counter (Model 5000). The percent dose per organ was calculated by a comparison of the tissue counts to counts of 1% of the initial dose (100 times diluted aliquots of the injected material) measured at the same time.
Regional brain distribution in rats was measured after an i.v. injection of the radioactive tracer. Samples from different brain regions [cortex (CX), striatum (ST), hippocampus (HP), cerebellum (CB) and hypothalamus (HY)] were dissected, weighed and counted. The percentage dose/g of each sample was calculated by comparing sample counts with the counts of the diluted initial dose described above. The ratio of specific binding (SB) in each region was obtained by dividing the difference of each region from the cerebellum (percentage dose/g) with that of the cerebellum [(region-CB)/CB].

[8] = Partition coefficient octanol/buffer; type: physicochemical; settings: 1-octanol/pH 7 buffer
[9] = [125I]IPT ligand, LLC-PK1 membranes, read-out: Inhibition constant (Ki) SERT
[10] = [125I]IPT ligand, LLC-PK1 membranes, read-out: Inhibition constant (Ki) NET
[11] = [125I]IPT ligand, LLC-PK1 membranes, read-out: Inhibition constant (Ki) DAT
[12] = 0.2 nM [125I]IDAM, rat frontal cortical homogenate, read-out: Ki for inhibition of [125I]IDAM binding

T1 sequence (P31652 whole entry): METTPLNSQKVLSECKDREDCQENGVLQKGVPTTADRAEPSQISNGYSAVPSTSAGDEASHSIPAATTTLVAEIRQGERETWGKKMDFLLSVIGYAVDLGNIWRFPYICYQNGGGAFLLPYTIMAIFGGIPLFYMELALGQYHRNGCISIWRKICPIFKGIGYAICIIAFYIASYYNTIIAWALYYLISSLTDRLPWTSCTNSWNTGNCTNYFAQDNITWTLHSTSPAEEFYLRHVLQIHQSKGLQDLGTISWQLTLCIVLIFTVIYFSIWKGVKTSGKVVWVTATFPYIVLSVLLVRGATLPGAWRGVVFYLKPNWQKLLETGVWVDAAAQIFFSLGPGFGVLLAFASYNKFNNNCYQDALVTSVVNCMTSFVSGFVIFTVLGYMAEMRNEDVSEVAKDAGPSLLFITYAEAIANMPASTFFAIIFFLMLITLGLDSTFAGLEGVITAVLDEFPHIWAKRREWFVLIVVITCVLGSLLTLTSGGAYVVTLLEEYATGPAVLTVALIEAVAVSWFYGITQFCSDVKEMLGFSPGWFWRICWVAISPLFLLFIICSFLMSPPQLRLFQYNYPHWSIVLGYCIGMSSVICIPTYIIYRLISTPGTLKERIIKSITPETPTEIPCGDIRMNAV
T2 sequence (P31652 whole entry): as above
T4 sequence (P23977 whole entry): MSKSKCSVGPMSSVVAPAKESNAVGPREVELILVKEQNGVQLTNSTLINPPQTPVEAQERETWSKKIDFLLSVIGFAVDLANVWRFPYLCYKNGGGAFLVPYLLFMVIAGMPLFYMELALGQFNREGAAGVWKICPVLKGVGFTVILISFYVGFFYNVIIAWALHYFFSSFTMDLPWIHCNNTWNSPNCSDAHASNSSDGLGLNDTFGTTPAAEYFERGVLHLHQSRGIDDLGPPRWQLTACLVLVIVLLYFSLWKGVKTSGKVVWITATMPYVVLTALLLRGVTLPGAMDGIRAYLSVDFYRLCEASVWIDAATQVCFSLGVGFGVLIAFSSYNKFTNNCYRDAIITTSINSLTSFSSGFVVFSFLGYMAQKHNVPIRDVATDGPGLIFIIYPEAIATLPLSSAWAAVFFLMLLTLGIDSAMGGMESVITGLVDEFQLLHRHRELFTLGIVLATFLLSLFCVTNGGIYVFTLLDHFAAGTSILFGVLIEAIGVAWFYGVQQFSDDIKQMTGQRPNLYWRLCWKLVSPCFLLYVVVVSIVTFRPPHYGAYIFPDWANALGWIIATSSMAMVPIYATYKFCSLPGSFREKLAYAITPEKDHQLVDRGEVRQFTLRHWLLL
T3 sequence (P23975 whole entry): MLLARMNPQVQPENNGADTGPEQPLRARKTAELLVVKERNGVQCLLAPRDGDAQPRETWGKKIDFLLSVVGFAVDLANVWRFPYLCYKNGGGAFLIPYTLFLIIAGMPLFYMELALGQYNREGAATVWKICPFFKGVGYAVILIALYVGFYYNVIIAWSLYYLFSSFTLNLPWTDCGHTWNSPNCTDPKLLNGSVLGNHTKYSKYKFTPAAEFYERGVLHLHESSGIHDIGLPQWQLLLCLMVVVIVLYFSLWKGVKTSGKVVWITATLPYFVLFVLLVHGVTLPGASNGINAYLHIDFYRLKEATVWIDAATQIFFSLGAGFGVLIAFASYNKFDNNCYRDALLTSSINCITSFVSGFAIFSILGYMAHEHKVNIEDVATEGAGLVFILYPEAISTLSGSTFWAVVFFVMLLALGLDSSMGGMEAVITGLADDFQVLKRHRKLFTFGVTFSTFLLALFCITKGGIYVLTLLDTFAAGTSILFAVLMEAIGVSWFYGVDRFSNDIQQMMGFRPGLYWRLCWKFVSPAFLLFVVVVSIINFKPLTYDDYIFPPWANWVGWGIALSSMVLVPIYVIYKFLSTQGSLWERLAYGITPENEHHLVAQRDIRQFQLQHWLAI

For CNCCC(Oc1ccc(I)cc1C)c1ccccc1 (stereo not shown) [4-I-tomoxetine], the Kd (SERT [1]) is given as 0.04 nM and the nonspecific binding (SERT [1]; at Kd value) is given as over 25%.

In the case of CN(C)Cc1ccccc1Sc1ccc(Cl)cc1CO [K99033], the Ki [2] is reported as under 0.01 nM.

Work on COCc1cc(I)ccc1Sc1ccccc1CN(C)C [K104] yielded a Ki [3] of 155 ± 18.7 nM, a Ki [2] of 0.02 nM and a Ki [4] of 11000 ± 200 nM.

Compound Cc1ccccc1Nc1ccc(I)cc1CN(C)C [K99037] has a Ki [2, 9] of 27.3 ± 6.9 nM.

Compound CN(C)Cc1ccccc1Sc1ccc(I)cc1N [K99028] has a Ki [3, 10] of 699 ± 80 nM and a Ki [2] of about 0.013 nM.

Compound CN(C)Cc1cc(N)ccc1Cc1ccccc1 [K99034] has a Ki [2, 9] of 35 ± 2.5 nM.

Cc1ccccc1Nc1ccc(N)cc1CN(C)C [K99036] showed a Ki [2, 9] of 139 ± 15 nM.

In the case of COC(=O)C(c1ccccc1)C1CCCCN1 (stereo not shown) [methylphenidate], the “effect of pretreatment on specific binding of [125I]IDAM in rat brain regions” value (“effect of pretreatment” below) (SERT [5]) is reported as “no effect”, the Ki (SERT [6]) is reported as over 1000 nM and the “Ki for inhibition of [125I]IDAM binding” value (SERT [6]; 0.2 nM [125I]IDAM, rat frontal cortical homogenate) is reported as “much less potent”.

In the case of CN(C)Cc1ccccc1Sc1ccc(Br)cc1CO [brominated derivative, 5-bromo-2-[[2-2[(dimethylamino)methyl]phenyl]thio]benzyl alcohol], the Ki [3, 10] is reported as 35.4 nM, the Ki [2, 9] is reported as under 0.1 nM and the Ki [4, 11] is reported as over 10000 nM.

Compound CCOCc1cc(I)ccc1Sc1ccccc1CN(C)C [K119] has a Ki [2, 9] of 0.234 nM and a Ki [4, 11] of 11100 ± 1100 nM.

For CN(C)Cc1ccccc1Sc1ccccc1N [K109], the Ki [2, 9] was 0.038 ± 0.01 nM and the Ki [4, 11] was 1700 ± 600 nM.

CN(C)Cc1ccccc1Oc1ccc(I)cc1 [K99039] gave a Ki [2, 9] of under 0.01 nM.

In the case of CC(=O)OCc1cc(Br)ccc1Sc1ccccc1CN(C)C [K68], the Ki [3, 10] is reported as 420 ± 62.5 nM, the Ki [2, 9] is reported as 2.42 ± 0.06 nM and the Ki [4, 11] is reported as 20.4 ± 1.55 nM.

For CN(C)Cc1ccccc1Sc1ccc(Br)cc1NO [K99025], the Ki [3, 10] was 165 ± 9 nM and the Ki [2, 9] was about 0.075 nM.

In the case of CCCOCc1cc(I)ccc1Sc1ccccc1CN(C)C [K120], the Ki [3, 10] is reported as 382 ± 46 nM, the Ki [2, 9] is reported as 0.33 ± 0.06 nM and the Ki [4, 11] is reported as 9300 ± 200 nM.

With CN(C)Cc1ccccc1Oc1ccc([125I])cc1CO [[^125I]ODAM, 5-[123-Iodo or 125-iodo]-2-(2-dimethylaminomethylphenoxy)-benzyl alcohol] the “% dose/organ BLOOD” value ([7]; 2 min) was 3.009 ± 0.212 % dose/organ, the “% dose/organ BRAIN” value ([7]; 2 min) was 2.033 ± 0.087 % dose/organ and the “% dose/organ THYROID” value ([7]; 2 min) was 0.080 ± 0.019 % dose/organ. The “Regional brain distribution (ratio/CB) CEREBELLUM” value ([7]; 2 min) was 1.000, the “Regional brain distribution (ratio/CB) CORTEX” value ([7]; 2 min) was 1.436 and the “Regional brain distribution (ratio/CB) HIPPOCAMPUS” value ([7]; 2 min) was 0.983. For the same compound, the “Regional brain distribution (ratio/CB) HYPOTHALAMUS” value ([7]; 2 min) was 1.221, the “Regional brain distribution (ratio/CB) STRIATUM” value ([7]; 2 min) was 0.906 and the “% dose/organ BLOOD” value ([7]; 30 min) was 3.517 ± 0.504 % dose/organ. For the same compound, the “% dose/organ BRAIN” value ([7]; 30 min) was 1.489 ± 0.146 % dose/organ, the “% dose/organ THYROID” value ([7]; 30 min) was 0.039 ± 0.006 % dose/organ and the “Regional brain distribution (ratio/CB) CEREBELLUM” value ([7]; 30 min) was 1.000. The “Regional brain distribution (ratio/CB) CORTEX” value ([7]; 30 min) was 1.771, the “Regional brain distribution (ratio/CB) HIPPOCAMPUS” value ([7]; 30 min) was 1.563 and the “Regional brain distribution (ratio/CB) HYPOTHALAMUS” value ([7]; 30 min) was 1.860. For the same compound, the “Regional brain distribution (ratio/CB) STRIATUM” value ([7]; 30 min) was 1.590, the “% dose/organ BLOOD” value ([7]; 60 min) was 3.296 ± 0.373 % dose/organ and the “% dose/organ BRAIN” value ([7]; 60 min) was 0.785 ± 0.231 % dose/organ. For the same compound, the “% dose/organ THYROID” value ([7]; 60 min) was 0.028 ± 0.005 % dose/organ, the “Regional brain distribution (ratio/CB) CEREBELLUM” value ([7]; 60 min) was 1.000 and the “Regional brain distribution (ratio/CB) CORTEX” value ([7]; 60 min) was 1.690. For the same compound, the “Regional brain distribution (ratio/CB) HIPPOCAMPUS” value ([7]; 60 min) was 1.791, the “Regional brain distribution (ratio/CB) HYPOTHALAMUS” value ([7]; 60 min) was 1.858 and the “Regional brain distribution (ratio/CB) STRIATUM” value ([7]; 60 min) was 1.605. For the same compound, the “% dose/organ BLOOD” value ([7]; 120 min) was 1.868 ± 0.186 % dose/organ, the “% dose/organ BRAIN” value ([7]; 120 min) was 0.267 ± 0.066 % dose/organ and the “% dose/organ THYROID” value ([7]; 120 min) was 0.034 ± 0.006 % dose/organ. The “Regional brain distribution (ratio/CB) CEREBELLUM” value ([7]; 120 min) was 1.000, the “Regional brain distribution (ratio/CB) CORTEX” value ([7]; 120 min) was 1.672 and the “Regional brain distribution (ratio/CB) HIPPOCAMPUS” value ([7]; 120 min) was 1.846. For the same compound, the “Regional brain distribution (ratio/CB) HYPOTHALAMUS” value ([7]; 120 min) was 1.630, the “Regional brain distribution (ratio/CB) STRIATUM” value ([7]; 120 min) was 1.617 and the “% dose/organ BLOOD” value ([7]; 240 min) was 0.976 ± 0.073 % dose/organ. For the same compound, the “% dose/organ BRAIN” value ([7]; 240 min) was 0.065 ± 0.017 % dose/organ, the “% dose/organ THYROID” value ([7]; 240 min) was 0.041 ± 0.038 % dose/organ and the “Regional brain distribution (ratio/CB) CEREBELLUM” value ([7]; 240 min) was 1.000. The “Regional brain distribution (ratio/CB) CORTEX” value ([7]; 240 min) was 1.322, the “Regional brain distribution (ratio/CB) HIPPOCAMPUS” value ([7]; 240 min) was 1.648 and the “Regional brain distribution (ratio/CB) HYPOTHALAMUS” value ([7]; 240 min) was 1.343. The “Regional brain distribution (ratio/CB) STRIATUM” value ([7]; 240 min) was 1.539.

For CN(C)Cc1ccccc1Sc1ccc(I)cc1CO [IDAM, 5-iodo-2-[[2-2[(dimethylamino)methyl]phenyl]thio]benzyl alcohol], the “effect of pretreatment” value (SERT [5]) was “dramatically reduced”, the Ki (SERT [6]) was 0.08 nM and the partition coefficient [8] was 473. The Ki [2] was under 0.1 nM, the “selectivity for SERT” value ([2]; SERT versus DAT and NET) was “more than 1,000 fold” and the Ki [4, 11] was over 10000 nM.

In the case of CCN1CCC[C@H]1CNC(=O)c1c(O)c(Cl)cc(Cl)c1OC [Raclopride, raclopride], the “effect of pretreatment” value (SERT [5]) is reported as “no effect” and the Ki (SERT [6]; [12]) is reported as 669 nM.

With CN(C)Cc1ccccc1Oc1ccc(I)cc1CO [ODAM, 5-Iodo-2-(2-dimethylaminomethylphenoxy)-benzyl alcohol] the “% dose/organ BRAIN” value ([7]; 2 min) was 2.03 % dose/organ, the “Regional brain distribution (ratio/CB) HYPOTHALAMUS” value ([7]; 2 min) was 1.22 and the “% dose/organ BRAIN” value ([7]; 30 min) was 1.49 % dose/organ. The “Regional brain distribution (ratio/CB) HYPOTHALAMUS” value ([7]; 30 min) was 1.86, the “% dose/organ BRAIN” value ([7]; 60 min) was 0.79 % dose/organ and the “Regional brain distribution (ratio/CB) HYPOTHALAMUS” value ([7]; 60 min) was 1.86. The “% dose/organ BRAIN” value ([7]; 120 min) was 0.27 % dose/organ, the “Regional brain distribution (ratio/CB) HYPOTHALAMUS” value ([7]; 120 min) was 1.63 and the “% dose/organ BRAIN” value ([7]; 240 min) was 0.07 % dose/organ. The “Regional brain distribution (ratio/CB) HYPOTHALAMUS” value ([7]; 240 min) was 1.34, the Ki (SERT [6]; [12]) was 2.88 ± 0.88 nM and the Ki [2, 9] was 0.12 nM. The Ki [4, 11] was 3900 ± 700 nM.

For CNCc1ccccc1Sc1ccc(I)cc1CO [K99032], the Ki [2, 9] was under 0.01 nM.

In the case of CN(C)Cc1ccccc1Sc1ccc(Br)cc1[N+](=O)[O-] [K110], the Ki [2, 9] is reported as 1.9 nM and the Ki [4, 11] is reported as 14700 ± 2200 nM.

For CN(C)Cc1ccccc1Sc1ccc(Br)cn1 [K102], the Ki [2, 9] was over 1000 nM.

For CN(C)Cc1ccccc1Sc1ccc(Br)cc1N [K99026], the Ki [3] was 214 ± 68 nM and the Ki [2, 9] was about 0.022 nM.
